In general, IC50 refers to the concentration that gives 50% inhibition. A lower IC50 goes with greater potency in that assay.

The structures appear in SMILES notation. Structures can show the parent of a compound that is named as a salt.

This assay deals with T1, BACE-2 (Homo sapiens, UniProt Q9Y5Z0).
T1 construct: Recombinant BACE-2 (extracellular domain, expressed in baculovirus and purified using standard methods); made in house
T1 sequence (Q9Y5Z0 63-473 limits assumed): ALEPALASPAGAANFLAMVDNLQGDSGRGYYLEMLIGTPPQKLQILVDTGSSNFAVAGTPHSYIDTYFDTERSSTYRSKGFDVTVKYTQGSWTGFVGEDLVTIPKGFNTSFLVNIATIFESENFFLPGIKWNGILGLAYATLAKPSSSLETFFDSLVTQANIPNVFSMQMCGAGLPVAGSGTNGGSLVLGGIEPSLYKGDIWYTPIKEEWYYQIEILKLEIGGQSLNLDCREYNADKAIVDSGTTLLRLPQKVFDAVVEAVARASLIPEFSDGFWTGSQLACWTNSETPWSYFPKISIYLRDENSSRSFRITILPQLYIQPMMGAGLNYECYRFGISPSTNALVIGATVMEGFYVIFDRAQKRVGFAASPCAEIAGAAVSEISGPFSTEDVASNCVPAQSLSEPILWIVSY
Briefly: assay for inhibition of BACE-2. The format is biochemical.
`COC(=O)N1CC(N)=NC(c2cc(NC(=O)c3ccc(C#N)cn3)ccc2F)(C(F)F)C1` (stereo not drawn) [Example 205, 5-Amino-3-{5-[(5-cyano-pyridine-2-carbonyl)-amino]-2-fluoro-phenyl}-3-difluoromethyl-3,6-dihydro-2H-pyrazine-1-carboxylic acid methyl ester] gave an IC50 of 0.104 µM.
Under `CC(=O)N1CC(N)=NC(c2cc(NC(=O)c3ncc(Br)cc3C)ccc2F)(C(F)F)C1` (stereo not drawn) [Example 206, 5-Bromo-3-methyl-pyridine-2-carboxylic acid [3-(4-acetyl-6-amino-2-difluoromethyl-2,3,4,5-tetrahydro-pyrazin-2-yl)-4-fluoro-phenyl]-amide] stands 0.004 µM; under `Cc1cc(Br)cnc1C(=O)Nc1ccc(F)c(C2(C(F)F)CN(C(=O)OCC(Cl)Cl)CC(N)=N2)c1` (stereo not drawn) [Example 207, 5-Amino-3-{5-[(5-bromo-3-methyl-pyridine-2-carbonyl)-amino]-2-fluoro-phenyl}-3-difluoromethyl-3,6-dihydro-2H-pyrazine-1-carboxylic acid 2,2-dichloro-ethyl ester], 0.003 µM.
Regarding `COCC(=O)N1CC(N)=NC(c2cc(NC(=O)c3ncc(Br)cc3C)ccc2F)(C(F)F)C1` (stereo not drawn) [Example 208, 5-Bromo-3-methyl-pyridine-2-carboxylic acid {3-[6-amino-2-difluoromethyl-4-(2-methoxy-acetyl)-2,3,4,5-tetrahydro-pyrazin-2-yl]-4-fluoro-phenyl}-amide], the half-inhibitory concentration (IC50) came to 0.004 µM. The IC50 values of the last two molecules are within 1.5-fold of each other.
In the case of `Cc1cc(Br)cnc1C(=O)Nc1ccc(F)c(C2(C(F)F)CN(C(=O)C3CC3)CC(N)=N2)c1` (stereo not drawn) [Example 209, 5-Bromo-3-methyl-pyridine-2-carboxylic acid [3-(6-amino-4-cyclopropanecarbonyl-2-difluoromethyl-2,3,4,5-tetrahydro-pyrazin-2-yl)-4-fluoro-phenyl]-amide] it was 0.006 µM; in that of `Cc1cc(Br)cnc1C(=O)Nc1ccc(F)c(C2(C(F)F)CNCC(N)=N2)c1` (stereo not drawn) [Example 210, 5-Bromo-3-methyl-pyridine-2-carboxylic acid [3-(6-amino-2-difluoromethyl-2,3,4,5-tetrahydro-pyrazin-2-yl)-4-fluoro-phenyl]-amide], 0.023 µM.
In the case of `CC(=O)N1CC(N)=NC(c2cc(NC(=O)c3ncc(OC(F)F)cc3C)ccc2F)(C(F)F)C1` (stereo not drawn) [Example 211, 5-Difluoromethoxy-3-methyl-pyridine-2-carboxylic acid [3-(4-acetyl-6-amino-2-difluoromethyl-2,3,4,5-tetrahydro-pyrazin-2-yl)-4-fluoro-phenyl]-amide] it was 0.089 µM; in that of `NC1=N[C@@](c2cc(NC(=O)c3ncc(=O)[nH]c3N)ccc2F)(C(F)F)CNC1` [Example 214, 3-Amino-5-oxo-4,5-dihydro-pyrazine-2-carboxylic acid [3-((R)-6-amino-2-difluoromethyl-2,3,4,5-tetrahydro-pyrazin-2-yl)-4-fluoro-phenyl]-amide], 0.757 µM; in that of `COCc1cc(Cl)cnc1C(=O)Nc1ccc(F)c([C@]2(C(F)F)COCC(N)=N2)c1` [Example 215, 5-Chloro-3-methoxymethyl-pyridine-2-carboxylic acid [3-((R)-5-amino-3-difluoromethyl-3,6-dihydro-2H-[1,4]oxazin-3-yl)-4-fluoro-phenyl]-amide], 0.011 µM.
In the case of `N#Cc1cnc(C(=O)Nc2ccc(F)c([C@]3(C(F)F)COCC(N)=N3)c2)c(Cl)c1` [Example 216] it was 0.061 µM; in that of `[2H]C([2H])([2H])Oc1cnc(C(=O)Nc2ccc(F)c([C@]3(C(F)F)COCC(N)=N3)c2)c(N)n1` [Example 217], 0.153 µM; in that of `C#CCOc1cnc(C(=O)Nc2ccc(F)c([C@]3(C(F)F)COCC(N)=N3)c2)c(N)n1` [Example 218], 0.125 µM.
`NC1=N[C@@](c2cc(NC(=O)c3ccc4c(Cl)c[nH]c4n3)ccc2F)(C(F)F)COC1` [Example 219] registered a concentration for half-maximal inhibition (IC50) of 0.117 µM.
The molecule `NC1=N[C@@](c2cc(NC(=O)c3ncc(C(F)F)nc3N)ccc2F)(C(F)F)COC1` [Example 220] had a concentration for half-maximal inhibition (IC50) of 0.116 µM.
In the case of `COc1cnc(C(=O)Nc2ccc(F)c([C@]3(C(F)F)COCC(N)=N3)c2)c(C)c1` [Example 221], half-maximal inhibition (IC50) required 0.065 µM.
In the case of `Cc1cc(C(F)F)cnc1C(=O)Nc1ccc(F)c([C@]2(C(F)F)COCC(N)=N2)c1` [Example 222] it was 0.052 µM; in that of `[2H]C([2H])([2H])OCc1cc(F)cnc1C(=O)Nc1ccc(F)c([C@]2(C(F)F)COCC(N)=N2)c1` [Example 223], 0.059 µM; in that of `[2H]C([2H])([2H])OCc1cc(OC([2H])([2H])[2H])cnc1C(=O)Nc1ccc(F)c([C@]2(C(F)F)COCC(N)=N2)c1` [Example 224], 0.103 µM.
Under `N#Cc1cnc(C(=O)Nc2ccc(F)c([C@]3(C(F)F)COCC(N)=N3)c2)c(N)c1` [Example 225] stands 0.027 µM; under `NC1=N[C@@](c2cc(NC(=O)c3ncc(C(F)F)cc3N)ccc2F)(C(F)F)COC1` [Example 226], 0.09 µM; under `[2H]C([2H])([2H])Oc1cnc(C(=O)Nc2ccc(F)c([C@]3(C(F)F)COCC(N)=N3)c2)c(C)c1` [Example 227], 0.064 µM.
Under `Cc1cc(C#N)cnc1C(=O)Nc1cc(F)c(F)c([C@]2(C(F)F)COCC(N)=N2)c1` [Example 228, 5-Cyano-3-methyl-pyridine-2-carboxylic acid [3-((R)-5-amino-3-difluoromethyl-3,6-dihydro-2H-[1,4]oxazin-3-yl)-4,5-difluoro-phenyl]-amide] stands 0.061 µM; under `[2H]C([2H])([2H])Oc1cnc(C(=O)Nc2cc(F)c(F)c([C@]3(C(F)F)COCC(N)=N3)c2)c(Cl)c1` [Example 229, 3-Chloro-5-trideuteromethoxy-pyridine-2-carboxylic acid [3-((R)-5-amino-3-difluoromethyl-3,6-dihydro-2H-[1,4]oxazin-3-yl)-4,5-difluoro-phenyl]-amide], 0.073 µM; under `[2H]c1nc(C(=O)Nc2cc(F)c(F)c([C@]3(C(F)F)COCC(N)=N3)c2)c(C([2H])([2H])[2H])c([2H])c1Cl` [Example 230, 4,6-Dideutero-5-chloro-3-trideuteromethyl-pyridine-2-carboxylic acid [3-((R)-5-amino-3-difluoromethyl-3,6-dihydro-2H-[1,4]oxazin-3-yl)-4,5-difluoro-phenyl]-amide], 0.008 µM.
`C[C@@]1(c2cc(NC(=O)c3ncc(C#N)cc3Cl)ccc2F)CO[C@@](C)(C(F)(F)F)C(N)=N1` [Example 231, 3-Chloro-5-cyano-pyridine-2-carboxylic acid [3-((3R,6R)-5-amino-3,6-dimethyl-6-trifluoromethyl-3,6-dihydro-2H-[1,4]oxazin-3-yl)-4-fluoro-phenyl]-amide hydrochloride]: the concentration for half-maximal inhibition (IC50) was determined as 0.006 µM.
Under `COc1cnc(C(=O)Nc2ccc(F)c([C@]3(C)CO[C@@](C)(C(F)(F)F)C(N)=N3)c2)c(Cl)c1` [Example 232, 3-Chloro-5-methoxy-pyridine-2-carboxylic acid [3-((3R,6R)-5-amino-3,6-dimethyl-6-trifluoromethyl-3,6-dihydro-2H-[1,4]oxazin-3-yl)-4-fluoro-phenyl]-amide hydrochloride] stands 0.007 µM.
In the case of `Cc1cc(Cl)cnc1C(=O)Nc1ccc(F)c([C@]2(C)CO[C@@](C)(C(F)(F)F)C(N)=N2)c1` [Example 234, 5-Chloro-3-methyl-pyridine-2-carboxylic acid [3-((3R,6R)-5-amino-3,6-dimethyl-6-trifluoromethyl-3,6-dihydro-2H-[1,4]oxazin-3-yl)-4-fluoro-phenyl]-amide hydrochloride] it was 0.002 µM; in that of `C[C@@]1(c2cc(NC(=O)c3ncc(Cl)cc3F)ccc2F)CO[C@@](C)(C(F)(F)F)C(N)=N1` [Example 235, 5-Chloro-3-fluoro-pyridine-2-carboxylic acid [3-((3R,6R)-5-amino-3,6-dimethyl-6-trifluoromethyl-3,6-dihydro-2H-[1,4]oxazin-3-yl)-4-fluoro-phenyl]-amide hydrochloride], 0.002 µM; in that of `Cl.[2H]C([2H])([2H])Oc1cnc(C(=O)Nc2ccc(F)c([C@]3(C)CO[C@@](C)(C(F)(F)F)C(N)=N3)c2)c(Cl)c1` [Example 236, 3-Chloro-5-trideutero-methoxy-pyridine-2-carboxylic acid [3-((3R,6R)-5-amino-3,6-dimethyl-6-trifluoromethyl-3,6-dihydro-2H-[1,4]oxazin-3-yl)-4-fluoro-phenyl]-amide hydrochloride], 0.006 µM.
In the case of `Cc1nc(C(=O)Nc2ccc(F)c([C@]3(C)CO[C@@](C)(C(F)(F)F)C(N)=N3)c2)c(C)o1` [Example 237, 2,5-Dimethyl-oxazole-4-carboxylic acid [3-((3R,6R)-5-amino-3,6-dimethyl-6-trifluoromethyl-3,6-dihydro-2H-[1,4]oxazin-3-yl)-4-fluoro-phenyl]-amide hydrochloride] it was 0.007 µM; in that of `Cc1cc(OC(F)F)cnc1C(=O)Nc1ccc(F)c([C@]2(C)CO[C@@](C)(C(F)(F)F)C(N)=N2)c1` [Example 238], 0.012 µM; in that of `C#CCOc1cnc(C(=O)Nc2ccc(F)c([C@]3(C)CO[C@@](C)(C(F)(F)F)C(N)=N3)c2)c(N)n1` [Example 239], 0.015 µM.
On to `Cc1cc(C(F)F)cnc1C(=O)Nc1ccc(F)c([C@]2(C)CO[C@@](C)(C(F)(F)F)C(N)=N2)c1` [Example 241, 5-Difluoromethyl-3-methyl-pyridine-2-carboxylic acid [3-((3R,6R)-5-amino-3,6-dimethyl-6-trifluoromethyl-3,6-dihydro-2H-[1,4]oxazin-3-yl)-4-fluoro-phenyl]-amide hydrochloride], for which the IC50 was determined as 0.008 µM. Against the preceding molecule, the IC50 is about 1.9-fold lower.

For the origin of these results see patent US20140128385A1 (NOVARTIS AG, priority 2011, published 2014).
